One block for each molecule: values may come before it.
Assays:
[1] = molecular target: Cyclin-dependent kinase 7 (Homo sapiens) (UniProt P50613); test: Inhibition of human recombinant CDK7 at 500 nM related to control ULK1
[2] = molecular target: T1, Myosin-IIIb (Homo sapiens) (UniProt Q8WXR4); test: Inhibition of human recombinant MYO3B at 40 nM in presence of ATP by radiometric assay relative to control
T1 sequence (whole entry): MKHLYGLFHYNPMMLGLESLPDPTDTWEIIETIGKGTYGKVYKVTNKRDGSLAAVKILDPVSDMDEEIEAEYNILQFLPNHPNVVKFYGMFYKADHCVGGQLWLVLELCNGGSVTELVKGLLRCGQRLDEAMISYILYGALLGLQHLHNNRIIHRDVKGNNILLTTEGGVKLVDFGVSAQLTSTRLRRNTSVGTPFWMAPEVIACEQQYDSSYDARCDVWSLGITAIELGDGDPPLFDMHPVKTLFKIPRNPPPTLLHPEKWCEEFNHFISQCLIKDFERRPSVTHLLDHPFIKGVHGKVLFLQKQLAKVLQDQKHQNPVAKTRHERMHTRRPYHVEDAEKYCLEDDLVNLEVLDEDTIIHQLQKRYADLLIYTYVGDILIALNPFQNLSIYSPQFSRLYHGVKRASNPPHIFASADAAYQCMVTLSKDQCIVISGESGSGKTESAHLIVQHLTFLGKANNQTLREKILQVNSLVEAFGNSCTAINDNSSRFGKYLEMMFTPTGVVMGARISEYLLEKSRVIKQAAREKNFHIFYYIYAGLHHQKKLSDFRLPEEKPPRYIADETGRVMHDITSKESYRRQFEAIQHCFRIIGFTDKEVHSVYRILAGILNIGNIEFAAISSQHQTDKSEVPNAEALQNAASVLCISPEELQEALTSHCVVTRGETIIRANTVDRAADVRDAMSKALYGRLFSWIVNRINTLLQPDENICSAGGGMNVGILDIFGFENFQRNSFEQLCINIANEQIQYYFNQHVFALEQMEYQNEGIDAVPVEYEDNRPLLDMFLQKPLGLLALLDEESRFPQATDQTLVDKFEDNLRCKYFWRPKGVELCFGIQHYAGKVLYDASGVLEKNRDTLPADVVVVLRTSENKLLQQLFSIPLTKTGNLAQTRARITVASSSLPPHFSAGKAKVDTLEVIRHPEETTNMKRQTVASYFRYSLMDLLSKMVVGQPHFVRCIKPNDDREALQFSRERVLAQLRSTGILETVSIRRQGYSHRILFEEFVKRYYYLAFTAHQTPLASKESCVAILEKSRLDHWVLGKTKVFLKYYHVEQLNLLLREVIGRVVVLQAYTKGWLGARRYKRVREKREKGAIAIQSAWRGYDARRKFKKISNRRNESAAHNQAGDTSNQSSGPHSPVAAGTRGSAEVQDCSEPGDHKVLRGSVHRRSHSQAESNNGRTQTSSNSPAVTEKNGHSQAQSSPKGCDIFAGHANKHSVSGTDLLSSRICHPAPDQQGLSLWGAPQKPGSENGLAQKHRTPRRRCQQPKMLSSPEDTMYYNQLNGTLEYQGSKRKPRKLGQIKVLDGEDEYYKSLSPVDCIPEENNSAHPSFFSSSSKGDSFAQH

[3] = molecular target: T2, Serine/threonine-protein kinase DCLK2 (Homo sapiens) (UniProt Q8N568); test: Inhibition of human recombinant DCAMKL2 at 15 nM related to control ULK1
T2 sequence (whole entry): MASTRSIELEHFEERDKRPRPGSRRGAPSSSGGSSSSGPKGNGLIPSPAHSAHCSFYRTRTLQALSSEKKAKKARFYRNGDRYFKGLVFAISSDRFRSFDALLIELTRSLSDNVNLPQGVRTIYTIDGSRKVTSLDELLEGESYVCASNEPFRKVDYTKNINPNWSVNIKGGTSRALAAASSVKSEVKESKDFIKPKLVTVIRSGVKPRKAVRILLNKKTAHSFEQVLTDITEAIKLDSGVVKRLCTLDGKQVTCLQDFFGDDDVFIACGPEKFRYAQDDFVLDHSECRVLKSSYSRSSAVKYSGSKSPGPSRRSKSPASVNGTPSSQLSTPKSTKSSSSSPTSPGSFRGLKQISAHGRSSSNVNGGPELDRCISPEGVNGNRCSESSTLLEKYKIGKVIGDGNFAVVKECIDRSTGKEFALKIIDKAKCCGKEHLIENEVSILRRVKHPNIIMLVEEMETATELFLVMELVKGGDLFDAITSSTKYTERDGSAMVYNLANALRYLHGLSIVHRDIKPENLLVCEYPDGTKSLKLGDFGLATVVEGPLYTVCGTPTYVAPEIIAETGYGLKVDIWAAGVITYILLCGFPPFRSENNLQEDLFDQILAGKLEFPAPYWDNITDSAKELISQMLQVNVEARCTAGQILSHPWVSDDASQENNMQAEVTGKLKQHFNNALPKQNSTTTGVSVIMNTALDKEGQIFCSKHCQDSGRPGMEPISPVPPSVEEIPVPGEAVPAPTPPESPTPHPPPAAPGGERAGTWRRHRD

[4] = molecular target: T3, SNF-related serine/threonine-protein kinase (Homo sapiens) (UniProt Q9NRH2); test: Inhibition of human recombinant SNRK at 15 nM in presence of ATP by radiometric assay relative to control
T3 sequence (whole entry): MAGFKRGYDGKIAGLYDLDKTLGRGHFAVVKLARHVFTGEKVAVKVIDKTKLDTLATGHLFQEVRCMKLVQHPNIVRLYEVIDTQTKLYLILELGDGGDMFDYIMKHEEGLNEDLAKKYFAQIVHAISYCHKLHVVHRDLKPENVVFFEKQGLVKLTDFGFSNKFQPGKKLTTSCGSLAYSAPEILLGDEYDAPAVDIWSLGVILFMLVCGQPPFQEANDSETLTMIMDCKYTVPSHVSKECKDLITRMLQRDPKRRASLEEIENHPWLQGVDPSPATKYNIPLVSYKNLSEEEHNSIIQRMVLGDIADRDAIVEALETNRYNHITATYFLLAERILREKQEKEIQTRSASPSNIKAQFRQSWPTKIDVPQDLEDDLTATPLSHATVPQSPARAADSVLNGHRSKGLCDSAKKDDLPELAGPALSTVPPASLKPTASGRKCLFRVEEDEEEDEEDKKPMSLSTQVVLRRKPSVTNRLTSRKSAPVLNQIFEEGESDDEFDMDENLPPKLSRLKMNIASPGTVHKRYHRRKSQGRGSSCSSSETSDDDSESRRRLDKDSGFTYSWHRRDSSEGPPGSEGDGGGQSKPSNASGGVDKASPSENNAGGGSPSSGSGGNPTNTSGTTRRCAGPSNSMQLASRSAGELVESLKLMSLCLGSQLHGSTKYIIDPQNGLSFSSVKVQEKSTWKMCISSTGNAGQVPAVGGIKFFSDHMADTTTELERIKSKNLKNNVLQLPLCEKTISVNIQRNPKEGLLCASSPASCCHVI

[5] = molecular target: High affinity nerve growth factor receptor (Homo sapiens) (UniProt P04629); test: Inhibition of human recombinant TRKA at 15 nM related to control ULK1
High affinity nerve growth factor receptor (Homo sapiens), sequence (P04629 33-796 limits assumed): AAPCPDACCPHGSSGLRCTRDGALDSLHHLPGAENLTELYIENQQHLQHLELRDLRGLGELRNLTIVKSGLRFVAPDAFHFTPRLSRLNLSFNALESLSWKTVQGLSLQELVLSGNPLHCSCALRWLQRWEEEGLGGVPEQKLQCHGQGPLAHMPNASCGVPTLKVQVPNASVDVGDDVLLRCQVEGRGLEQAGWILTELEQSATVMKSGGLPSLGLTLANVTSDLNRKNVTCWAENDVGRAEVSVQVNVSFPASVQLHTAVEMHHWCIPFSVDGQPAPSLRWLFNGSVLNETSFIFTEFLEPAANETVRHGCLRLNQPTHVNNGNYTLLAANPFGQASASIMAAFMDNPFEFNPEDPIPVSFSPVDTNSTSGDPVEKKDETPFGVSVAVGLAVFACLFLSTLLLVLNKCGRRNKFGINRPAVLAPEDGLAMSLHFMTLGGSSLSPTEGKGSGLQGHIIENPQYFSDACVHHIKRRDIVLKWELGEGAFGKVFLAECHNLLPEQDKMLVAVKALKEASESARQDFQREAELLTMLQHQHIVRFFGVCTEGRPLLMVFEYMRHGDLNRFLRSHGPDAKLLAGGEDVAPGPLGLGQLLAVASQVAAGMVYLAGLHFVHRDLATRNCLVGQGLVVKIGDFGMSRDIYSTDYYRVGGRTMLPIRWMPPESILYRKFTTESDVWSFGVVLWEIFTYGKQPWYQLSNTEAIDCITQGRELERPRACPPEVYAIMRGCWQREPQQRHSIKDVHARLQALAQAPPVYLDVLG

Cyclin-dependent kinase 7 (Homo sapiens), sequence (P50613 whole entry): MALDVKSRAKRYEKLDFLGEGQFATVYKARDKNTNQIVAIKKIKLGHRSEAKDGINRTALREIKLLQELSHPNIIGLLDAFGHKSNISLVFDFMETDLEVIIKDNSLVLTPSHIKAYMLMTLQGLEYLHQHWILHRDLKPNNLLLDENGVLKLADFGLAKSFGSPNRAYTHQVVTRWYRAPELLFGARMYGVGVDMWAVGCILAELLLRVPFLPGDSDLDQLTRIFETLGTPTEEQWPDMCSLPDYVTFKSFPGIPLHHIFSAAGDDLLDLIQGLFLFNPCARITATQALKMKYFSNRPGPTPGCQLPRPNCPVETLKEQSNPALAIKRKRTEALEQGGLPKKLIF

fold change (FC) [1]: 0.39
SMILES: CNC(=O)c1ccccc1Oc1nc(Nc2cc(OC)c(OC)c(OC)c2)ncc1Br

inhibition [2]: 0%
SMILES: O=C(N[C@@H](C1CC1)C(F)(F)F)c1cc(-c2cnn3cc(-c4ccc(F)cc4)cnc23)cs1

fold change (FC) [3]: 0.14
inhibition [4]: 8%
fold change (FC) [5]: 0
SMILES: CC(C)[C@H](NC(=O)c1cc(-c2cnn3cc(-c4ccc(OCCN5CCCCC5)cc4)cnc23)cs1)C(F)(F)F

Reference: ChEMBL document CHEMBL5653631, “A Potent and Selective ULK1 Inhibitor Suppresses Autophagy and Sensitizes Cancer Cells to Nutrient Stress” (iScience, 2018)
